Assay [1] addresses T1, human sodium glucose cotransporter 2 (Homo sapiens, UniProt P31639).
T1 construct: expressed in transfected cells; host or cells: CHO-K1 (ATCC CCL-61) or HEK293 (ATCC CRL-1573), stably transfected with pZeoSV expression vector
T1 sequence (P31639 1-672): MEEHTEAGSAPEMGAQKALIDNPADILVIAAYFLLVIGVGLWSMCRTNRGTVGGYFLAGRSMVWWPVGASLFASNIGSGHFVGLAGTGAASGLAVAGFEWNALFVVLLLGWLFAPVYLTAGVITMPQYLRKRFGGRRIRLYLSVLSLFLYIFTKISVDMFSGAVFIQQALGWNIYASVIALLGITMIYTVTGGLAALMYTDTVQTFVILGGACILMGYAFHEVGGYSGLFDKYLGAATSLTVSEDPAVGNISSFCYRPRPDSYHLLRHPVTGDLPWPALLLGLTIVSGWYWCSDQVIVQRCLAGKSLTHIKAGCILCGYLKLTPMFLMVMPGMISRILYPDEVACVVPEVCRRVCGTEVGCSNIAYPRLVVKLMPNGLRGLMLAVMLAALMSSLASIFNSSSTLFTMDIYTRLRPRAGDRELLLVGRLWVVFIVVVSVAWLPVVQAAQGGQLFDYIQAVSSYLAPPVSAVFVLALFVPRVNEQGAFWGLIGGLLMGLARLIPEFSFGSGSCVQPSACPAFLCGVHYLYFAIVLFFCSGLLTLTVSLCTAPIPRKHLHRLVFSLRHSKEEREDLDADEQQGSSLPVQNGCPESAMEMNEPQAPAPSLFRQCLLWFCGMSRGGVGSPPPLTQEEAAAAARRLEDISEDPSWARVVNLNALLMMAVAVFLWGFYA
The experiment in a line: SGLT-2 assay: 14C-AMG uptake in CHO-hSGLT2 or HEK293-hSGLT2 cells. In kind it is cell-based. To be noted: n = 1-4, hSGLT2-transfected cells, read-out: SGLT2 IC50 nM (n = 1-4). The method, then: These cell lines transport 14 C-labelled alpha-methyl-glucopyranoside (14 C-AMG, Amersham) into the interior of the cell in sodium-dependent manner.
The SGLT-2 assay is carried out as follows: CHO-hSGLT2 cells are cultivated in Ham's F12 Medium (BioWhittaker) with 10% foetal calf serum and 250 μg/mL zeocin (Invitrogen), and HEK293-hSGLT2 cells are cultivated in DMEM medium with 10% foetal calf serum and 250 μg/mL zeocin (Invitrogen). The cells are detached from the culture flasks by washing twice with PBS and subsequently treating with trypsin/EDTA. After the addition of cell culture medium the cells are centrifuged, resuspended in culture medium and counted in a Casy cell counter. Then 40,000 cells per well are seeded into a white, 96-well plate coated with poly-D-Iysine and incubated overnight at 37° C., 5% CO2. The cells are washenwice with 250 μl of assay buffer (Hanks Balanced Salt Solution, 137 mM NaCl, 5.4 mM KCl, 2.8 mM CaCl2, 1.2 mM MgSO4 and 10 mM HEPES (pH 7.4), 50 μg/mL of gentamycin). 250 μl of assay buffer and 5 μl of test compound are then added to each well and the plate is incubated for a further 15 minutes in the incubator. 5 μl of 10% DMSO are used as the negative control. The reaction is started by adding 5 μl of 14 C-AMG (0.05 μCi) to each well. After 2 hours' incubation at 37° C., 5% CO2, the cells are washed again with 250 μl of PBS (200C) and then lysed by the addition of 25 μl of 0.1 N NaOH (5 min. at 37° C.). 200 μl of MicroScint20 (Packard) are added to each well and incubation is continued for a further 20 min at 37° C. After this incubation the radioactivity of the 14 C-AMG absorbed is measured in a Topcount (Packard) using a 14 C scintillation program.

A further assay concerns the target T2, human SGLT1 (Homo sapiens, UniProt P13866).
T2 construct: expressed in transfected cells; host or cells: CHO-K1 or HEK293 cells
T2 sequence (P13866 1-664): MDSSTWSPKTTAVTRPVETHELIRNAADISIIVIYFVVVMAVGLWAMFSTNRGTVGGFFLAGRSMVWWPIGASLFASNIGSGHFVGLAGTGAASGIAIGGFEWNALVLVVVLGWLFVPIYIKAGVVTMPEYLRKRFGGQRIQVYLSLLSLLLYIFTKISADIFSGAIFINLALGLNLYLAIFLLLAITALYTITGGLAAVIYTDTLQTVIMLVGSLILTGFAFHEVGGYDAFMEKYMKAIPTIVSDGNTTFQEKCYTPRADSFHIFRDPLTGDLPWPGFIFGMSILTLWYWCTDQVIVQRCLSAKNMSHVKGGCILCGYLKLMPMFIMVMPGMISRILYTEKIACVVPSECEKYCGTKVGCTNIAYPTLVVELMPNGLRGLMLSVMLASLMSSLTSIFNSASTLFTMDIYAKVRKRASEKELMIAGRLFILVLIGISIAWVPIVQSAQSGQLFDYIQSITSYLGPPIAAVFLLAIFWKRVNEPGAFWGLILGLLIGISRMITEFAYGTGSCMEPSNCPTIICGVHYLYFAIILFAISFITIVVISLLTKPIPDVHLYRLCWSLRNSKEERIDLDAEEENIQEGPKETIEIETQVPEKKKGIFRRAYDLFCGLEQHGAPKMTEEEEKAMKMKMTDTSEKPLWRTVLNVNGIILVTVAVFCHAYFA
Nature of the assay: hSGLT1 assay: analogous [14C]-AMG uptake in CHO-K1 or HEK293 cells expressing hSGLT1. The class given is cell-based. The following applies: n = 1-4, hSGLT1-transfected cells. The method, then: To determine human SGLT1 inhibitory activity, an analogous test was set up in which the cDNA for hSGLTI (Genbank Ace. No. NM000343) instead of hSGLT2 cDNA is expressed in CHO-K1 or HEK293 cells. The uptake assay buffer in the case of the hSGLT1 assay contains 10 mM HEPES, 5 mM Tris, 140 mM NaCl, 2 mM KCl, 1 mM CaCl2, and 1 mM MgCl2, pH 7.4 containing 0.5 mM of α-methyl-D-glucopyranoside (AMG), 10 μM of [^14C]-α-methyl-D-glucopyranoside and different inhibitor concentrations.

SMILES strings stand for the structures.

As usually defined, the IC50 is the concentration that inhibits the measured activity by half. Regarding `CCOc1ccc(Cc2cc([C@@H]3O[C@H](CSc4ncccn4)[C@@H](O)[C@H](O)[C@H]3O)ccc2Cl)cc1` [Example 8, (2S,3R,4R,5S,6S)-2-[4-Chloro-3-(4-ethoxy-benzyl)-phenyl]-6-(pyrimidin-2-ylsulfanylmethyl)-tetrahydro-pyran-3,4,5-triol], the IC50 in assay [1] is 85 nM.

Turning to `CCOc1ccc(Cc2cc([C@@H]3O[C@H](CSc4nnnn4C)[C@@H](O)[C@H](O)[C@H]3O)ccc2Cl)cc1` [Example 10, (2S,3R,4R,5S,6S)-2-[4-Chloro-3-(4-ethoxy-benzyl)-phenyl]-6-(1-methyl-1H-tetrazol-5-ylsulfanylmethyl)-tetrahydro-pyran-3,4,5-triol], the results for the IC50 (in assay [1]; on human SGLT1) were 20 nM and under 1000 nM, respectively.

Turning to `CCOc1ccc(Cc2cc([C@@H]3O[C@H](CSc4cccs4)[C@@H](O)[C@H](O)[C@H]3O)ccc2Cl)cc1` [Example 11, (2S,3R,4R,5S,6S)-2-[4-Chloro-3-(4-ethoxy-benzyl)-phenyl]-6-(thiophen-2-ylsulfanylmethyl)-tetrahydro-pyran-3,4,5-triol], the IC50 was 60 nM in assay [1] and under 1000 nM against human SGLT1.

On to `CCOc1ccc(Cc2cc([C@@H]3O[C@H](CSc4nc5ccccc5[nH]4)[C@@H](O)[C@H](O)[C@H]3O)ccc2Cl)cc1` [Example 15, (2S,3S,4R,5R,6S)-2-(1H-Benzoimidazol-2-ylsulfanylmethyl)-6-[4-chloro-3-(4-ethoxy-benzyl)-phenyl]-tetrahydro-pyran-3,4,5-triol], for which the half-maximal inhibitory concentration (IC50) in assay [1] was determined as 65 nM.

Consider `CCOc1ccc(Cc2cc([C@@H]3O[C@H](CSc4ccccc4CO)[C@@H](O)[C@H](O)[C@H]3O)ccc2Cl)cc1` [Example 23, (2S,3R,4R,5S,6S)-2-[4-Chloro-3-(4-ethoxy-benzyl)-phenyl]-6-(2-hydroxymethyl-phenylsulfanylmethyl)-tetrahydro-pyran-3,4,5-triol], for which the concentration for half-maximal inhibition (IC50) in assay [1] turned out to be 36 nM.

In the case of `CCOc1ccc(Cc2cc([C@@H]3O[C@H](CSc4ccccc4C(N)=O)[C@@H](O)[C@H](O)[C@H]3O)ccc2Cl)cc1` [Example 24, 2-{(2S,3S,4R,5R,6S)-6-[4-Chloro-3-(4-ethoxy-benzyl)-phenyl]-3,4,5-trihydroxy-tetrahydro-pyran-2-ylmethylsulfanyl}-benzamide], the IC50 in assay [1] turned out to be 57 nM.

As to `CCOc1ccc(Cc2cc([C@@H]3O[C@H](CSc4cc(NC(C)=O)ccc4F)[C@@H](O)[C@H](O)[C@H]3O)ccc2Cl)cc1` [Example 25, N-(3-{(2S,3S,4R,5R,6S)-6-[4-Chloro-3-(4-ethoxy-benzyl)-phenyl]-3,4,5-trihydroxy-tetrahydro-pyran-2-ylmethylsulfanyl}-4-fluoro-phenyl)-acetamide], the half-inhibitory concentration (IC50) is 7 nM in assay [1] and under 50 nM at human SGLT1.

For `CCOc1ccc(Cc2cc([C@@H]3O[C@H](CSc4cc(C(N)=O)ccc4F)[C@@H](O)[C@H](O)[C@H]3O)ccc2Cl)cc1` [Example 26], the figures for the 50% inhibitory concentration (IC50) (in assay [1]; against human SGLT1) were 12 nM and under 50 nM, respectively.

As for `CCOc1ccc(Cc2cc([C@@H]3O[C@H](CSc4cc(C(=O)NC)ccc4F)[C@@H](O)[C@H](O)[C@H]3O)ccc2Cl)cc1` [Example 27, 3-{(2S,3S,4R,5R,6S)-6-[4-Chloro-3-(4-ethoxy-benzyl)-phenyl]-3,4,5-trihydroxy-tetrahydro-pyran-2-ylmethylsulfanyl}-4-fluoro-N-methyl-benzamide], the results for the half-maximal inhibitory concentration (IC50) (in assay [1]; on human SGLT1) were 6 nM and under 50 nM, respectively.

For the compound `CCOc1ccc(Cc2cc([C@@H]3O[C@H](CSc4cc(C(=O)N5CCCC5)ccc4F)[C@@H](O)[C@H](O)[C@H]3O)ccc2Cl)cc1` [Example 36, (3-{(2S,3S,4R,6R,6S)-6-[4-Chloro-3-(4-ethoxy-benzyl)-phenyl]-3,4,5-trihydroxy-tetrahydro-pyran-2-ylmethylsulfanyl}-4-fluoro-phenyl)-pyrrolidin-1-yl-methanone], the concentration for half-maximal inhibition (IC50) in assay [1] turned out to be 6 nM.

Take `CCOc1ccc(Cc2cc([C@@H]3O[C@H](CSc4ccc(NC(C)=O)cc4)[C@@H](O)[C@H](O)[C@H]3O)ccc2Cl)cc1` [Example 61, N-(4-{(2S,3S,4R,6R,6S)-6-[4-Chloro-3-(4-ethoxy-benzyl)-phenyl]-3,4,6-trihydroxy-tetrahydro-pyran-2-ylmethylsulfanyl}-phenyl)-acetamide]: the IC50 in assay [1] is 28 nM.

As to `CCOc1ccc(Cc2cc([C@@H]3O[C@H](CSc4cccc(NC(=O)CC)c4)[C@@H](O)[C@H](O)[C@H]3O)ccc2Cl)cc1` [Example 67, N-(3-{(2S,3S,4R,5R,6S)-6-[4-Chloro-3-(4-ethoxy-benzyl)-phenyl]-3,4,5-trihydroxy-tetrahydro-pyran-2-ylmethylsulfanyl}-phenyl)-propionamide], in assay [1], the half-maximal inhibitory concentration (IC50) was 9 nM.

With `CCOc1ccc(Cc2cc([C@@H]3O[C@H](CSc4cccc(NC(=O)OC)c4)[C@@H](O)[C@H](O)[C@H]3O)ccc2Cl)cc1` [Example 69], the IC50 in assay [1] turned out to be 28 nM.

`CCOc1ccc(Cc2cc([C@@H]3O[C@H](CSc4cccc(CO)c4)[C@@H](O)[C@H](O)[C@H]3O)ccc2Cl)cc1` [Example 77, (2S,3R,4R,5S,6S)-2-[4-Chloro-3-(4-ethoxy-benzyl)-phenyl]-6-(3-hydroxymethyl-phenylsulfanylmethyl)-tetrahydro-pyran-3,4,5-triol]: the IC50 in assay [1] was 61 nM.

As to `CCOc1ccc(Cc2cc([C@@H]3O[C@H](COc4cccc(C(=O)NC)c4)[C@@H](O)[C@H](O)[C@H]3O)ccc2Cl)cc1` [Example 83, 3-{(2R,3S,4R,5R,6S)-6-[4-Chloro-3-(4-ethoxy-benzyl)-phenyl]-3,4,5-trihydroxy-tetrahydro-pyran-2-ylmethoxy}-N-methyl-benzamide], the IC50 in assay [1] came to 72 nM.

On to `CCOc1ccc(Cc2cc([C@@H]3O[C@H](COc4cccc(C(=O)N5CCCC5)c4)[C@@H](O)[C@H](O)[C@H]3O)ccc2Cl)cc1` [Example 84, (3-{(2R,3S,4R,5R,6S)-6-[4-Chloro-3-(4-ethoxy-benzyl)-phenyl]-3,4,5-trihydroxy-tetrahydro-pyran-2-ylmethoxy}-phenyl)-pyrrolidin-1-yl-methanone], for which, in assay [1], the half-maximal inhibitory concentration (IC50) was found to be 11 nM.

On to `CCOc1ccc(Cc2cc([C@@H]3O[C@H](COc4cccc(C(=O)N5CCC5)c4)[C@@H](O)[C@H](O)[C@H]3O)ccc2Cl)cc1` [Example 85], for which, in assay [1], the concentration for half-maximal inhibition (IC50) turned out to be 9 nM.

(Values after patent US20110230403A1, “GLYCOSIDE DERIVATIVES AND USES THEREOF” (NOVARTIS AG, priority 2008, published 2011).)
